Test results: patent US20060069132A1, “Azolecarboxamide herbicides” (priority 2004, published 2006)
Like-named read-outs stand apart in the source and are kept apart here.

Experiments:
[1] = system: pigweed; assay: Test B pre-/postemergence herbicide test; assay type: in vivo, Amaranthus retroflexus; conditions: Amaranthus retroflexus, 336 h; for pest or weed control at 125 g/ha: 125 g ai/ha; for pest or weed control at 500 g/ha: 500 g ai/ha
Summary of the method: (§1)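 Test chemicals in a non-phytotoxic solvent mixture with surfactant were applied preemergence to seeded species and postemergence to plants 2-18 cm tall (1- to 4-leaf stage); rice and barnyardgrass were also tested in a flooded paddy at the 2-leaf stage. Visual rating versus controls after 13-15 days in greenhouse, scale 0 (no effect) to 100 (complete control).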

[2] = system: ducksalad; assay: Test B flooded paddy test; assay type: in vivo, Heteranthera limosa; conditions: Heteranthera limosa, 336 h, 1000 g ai/ha, visual rating, scale 0 to 100 (0 no effect, 100 complete control), 13 to 15 days, read-out: Ducksalad plant response rating
Summary of the method: (§2)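 Formulated test chemicals went onto postemergence plants measuring 2 to 18 cm, at one to four leaves. For the paddy assay, species had reached two leaves. Scoring took place 13–15 days later by eye, relative to untreated plants, using 0 for no effect up to 100 for full control.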

[3] = system: blackgrass; assay: Test B postemergence herbicide test; assay type: in vivo, Alopecurus myosuroides; conditions: Alopecurus myosuroides, post-emergence, 336 h, postemergence, visual rating, scale 0 (no effect) to 100 (complete control), read-out: Blackgrass plant response rating
Summary of the method: as §2

[4] = system: cocklebur; assay: Test B pre-/postemergence herbicide test; assay type: in vivo, Xanthium strumarium; conditions: Xanthium strumarium; for pest or weed control at 125 g/ha: 125 g ai/ha; for pest or weed control at 500 g/ha: 500 g ai/ha
Summary of the method: (§3)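 Plants compared with untreated controls 13–15 days post-treatment and given a visual 0–100 injury score. Applications: preemergence to seeds; postemergence at 1- to 4-leaf (2–18 cm); paddy species flooded, 2-leaf stage. Vehicle non-phytotoxic, surfactant included.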

[5] = system: corn; assay: Test B pre-/postemergence herbicide test; assay type: in vivo, Zea mays; conditions: Zea mays
Summary of the method: as §1

[6] = system: barnyardgrass; assay: Test B pre-/postemergence herbicide test; assay type: in vivo, Echinochloa crus-galli; conditions: Echinochloa crus-galli; for pest or weed control at 125 g/ha: 125 g ai/ha; for pest or weed control at 500 g/ha: 500 g ai/ha
Summary of the method: as §3

[7] = system: Surinam grass; assay: Test B pre-/postemergence herbicide test; assay type: in vivo, Urochloa decumbens; conditions: Urochloa decumbens; for pest or weed control at 125 g/ha: 125 g ai/ha; for pest or weed control at 500 g/ha: 500 g ai/ha
Summary of the method: as §1

[8] = system: rice; assay: Test B flooded paddy test; assay type: in vivo, Oryza sativa; conditions: Oryza sativa, 336 h, 1000 g ai/ha, visual rating, scale 0 to 100 (0 no effect, 100 complete control), 13 to 15 days, read-out: Rice plant response rating
Summary of the method: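 Paddy species grown to the 2-leaf stage under flooding; blackgrass sprayed postemergence at 2–18 cm (1- to 4-leaf stage). Plants kept in a greenhouse for 13 to 15 days, then visually rated against controls on 0 (no effect) to 100 (complete control).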

[9] = system: velvetleaf; assay: Test B pre-/postemergence herbicide test; assay type: in vivo, Abutilon theophrasti; conditions: Abutilon theophrasti, 336 h; for pest or weed control at 125 g/ha: 125 g ai/ha; for pest or weed control at 500 g/ha: 500 g ai/ha
Summary of the method: as §1

[10] = system: large crabgrass; assay: Test B pre-/postemergence herbicide test; assay type: in vivo, Digitaria sanguinalis; conditions: Digitaria sanguinalis; for pest or weed control at 125 g/ha: 125 g ai/ha; for pest or weed control at 500 g/ha: 500 g ai/ha
Summary of the method: as §1

[11] = system: wild oat; assay: Test B postemergence herbicide test; assay type: in vivo, Avena fatua; conditions: Avena fatua, post-emergence, 336 h, postemergence, visual rating, scale 0 (no effect) to 100 (complete control), read-out: Oat, Wild plant response rating
Summary of the method: (§4)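 Visual ratings, 0 (no effect) to 100 (complete control), made versus controls after 13–15 d greenhouse. Paddy plants treated at 2-leaf stage; postemergence plants at 1- to 4-leaf stage, 2–18 cm tall.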

[12] = system: wheat; assay: Test B postemergence herbicide test; assay type: in vivo, Triticum aestivum; conditions: Triticum aestivum, post-emergence, 336 h, postemergence, 500 g ai/ha; visual rating, scale 0 (no effect) to 100 (complete control); read-out: Wheat plant response rating
Summary of the method: as §4

[13] = system: barnyardgrass; assay: Test B flooded paddy test; assay type: in vivo, Echinochloa crus-galli; conditions: Echinochloa crus-galli, 336 h, 1000 g ai/ha, visual rating, scale 0 to 100 (0 no effect, 100 complete control), 13 to 15 days, read-out: Barnyardgrass plant response rating
Summary of the method: as §2

[14] = system: giant foxtail; assay: Test B pre-/postemergence herbicide test; assay type: in vivo, Setaria faberi; conditions: Setaria faberi, 336 h; for pest or weed control at 125 g/ha: 125 g ai/ha; for pest or weed control at 500 g/ha: 500 g ai/ha
Summary of the method: as §1

[15] = system: small flower umbrella sedge; assay: Test B flooded paddy test; assay type: in vivo, Cyperus difformis; conditions: Cyperus difformis, 336 h, 1000 g ai/ha, visual rating, scale 0 to 100 (0 no effect, 100 complete control), 13 to 15 days, read-out: Sedge, Umbrella plant response rating
Summary of the method: as §2

[16] = post-emergence, postemergence, visual rating, scale 0 (no effect) to 100 (complete control), read-out: Pigweed plant response rating
[17] = post-emergence, postemergence, visual rating, scale 0 (no effect) to 100 (complete control), read-out: Cocklebur plant response rating
[18] = post-emergence, postemergence, visual rating, scale 0 (no effect) to 100 (complete control), read-out: Barnyardgrass plant response rating
[19] = post-emergence, postemergence, visual rating, scale 0 (no effect) to 100 (complete control), read-out: Surinam Grass plant response rating
[20] = post-emergence, postemergence, visual rating, scale 0 (no effect) to 100 (complete control), read-out: Velvetleaf plant response rating
[21] = post-emergence, postemergence, visual rating, scale 0 (no effect) to 100 (complete control), read-out: Crabgrass, Large plant response rating
[22] = post-emergence, postemergence, visual rating, scale 0 (no effect) to 100 (complete control), read-out: Foxtail, Giant plant response rating

CCn1nc(C(C)(C)C)cc1C(=O)Nc1cccc(C(=O)OC)n1 [Compound 143, methyl 6-[[[3-(1,1-dimethylethyl)-1-ethyl-1H-pyrazol-5-yl]carbonyl]amino]-2-pyridinecarboxylate]
pest or weed control at 125 g/ha [1, 16]: 0%
pest or weed control at 500 g/ha [1, 16]: 20%
pest or weed control at 500 g/ha ([1]; pre-emergence, visual rating 0-100, 0 no effect, 100 complete control, read-out: Plant response rating, Pigweed): 0%
pest or weed control at 125 g/ha ([1]; pre-emergence, preemergence, 0 to 100 scale, 0 is no effect, 100 is complete control, read-out: Plant response rating, Pigweed): 0%
pest or weed control at 1000 g/ha [2]: 0%
pest or weed control at 125 g/ha ([3]; 125 g ai/ha): 0%
pest or weed control at 500 g/ha ([3]; 500 g ai/ha): 0%
pest or weed control at 125 g/ha [4, 17]: 0%
pest or weed control at 500 g/ha [4, 17]: 0%
pest or weed control at 500 g/ha ([4]; pre-emergence, visual rating 0-100, 0 no effect, 100 complete control, read-out: Plant response rating, Cocklebur): 0%
pest or weed control at 125 g/ha ([4]; pre-emergence, preemergence, 0 to 100 scale, 0 is no effect, 100 is complete control, read-out: Plant response rating, Cocklebur): 0%
plant injury at 125 g/ha ([5]; post-emergence, postemergence, 125 g ai/ha, visual rating, scale 0 (no effect) to 100 (complete control), read-out: Corn plant response rating): 0%
plant injury at 500 g/ha ([5]; post-emergence, postemergence, 500 g ai/ha, visual rating, scale 0 (no effect) to 100 (complete control), read-out: Corn plant response rating): 10%
Corn plant response rating (crop injury, 0 = no effect, 100 = complete kill) at 500 g/ha ([5]; pre-emergence, 500 g ai/ha, visual rating 0-100, 0 no effect, 100 complete control): 0%
Corn plant response rating (crop injury, 0 = no effect, 100 = complete kill) at 125 g/ha ([5]; pre-emergence, preemergence, 125 g ai/ha, 0 to 100 scale, 0 is no effect, 100 is complete control): 0%
pest or weed control at 125 g/ha [6, 18]: 0%
pest or weed control at 500 g/ha [6, 18]: 0%
pest or weed control at 500 g/ha ([6]; pre-emergence, visual rating 0-100, 0 no effect, 100 complete control, read-out: Plant response rating, Barnyardgrass): 0%
pest or weed control at 125 g/ha ([6]; pre-emergence, preemergence, 0 to 100 scale, 0 is no effect, 100 is complete control, read-out: Plant response rating, Barnyardgrass): 0%
pest or weed control at 125 g/ha [7, 19]: 10%
pest or weed control at 500 g/ha [7, 19]: 10%
pest or weed control at 500 g/ha ([7]; pre-emergence, visual rating 0-100, 0 no effect, 100 complete control, read-out: Plant response rating, Surinam Grass): 0%
pest or weed control at 125 g/ha ([7]; pre-emergence, preemergence, 0 to 100 scale, 0 is no effect, 100 is complete control, read-out: Plant response rating, Surinam Grass): 0%
plant injury at 1000 g/ha [8]: 0%
pest or weed control at 125 g/ha [9, 20]: 0%
pest or weed control at 500 g/ha [9, 20]: 20%
pest or weed control at 500 g/ha ([9]; pre-emergence, visual rating 0-100, 0 no effect, 100 complete control, read-out: Plant response rating, Velvetleaf): 0%
pest or weed control at 125 g/ha ([9]; pre-emergence, preemergence, 0 to 100 scale, 0 is no effect, 100 is complete control, read-out: Plant response rating, Velvetleaf): 0%
pest or weed control at 125 g/ha [10, 21]: 0%
pest or weed control at 500 g/ha [10, 21]: 0%
pest or weed control at 500 g/ha ([10]; pre-emergence, visual rating 0-100, 0 no effect, 100 complete control, read-out: Plant response rating, Crabgrass, Large): 0%
pest or weed control at 125 g/ha ([10]; pre-emergence, preemergence, 0 to 100 scale, 0 is no effect, 100 is complete control, read-out: Plant response rating, Crabgrass, Large): 0%
pest or weed control at 125 g/ha ([11]; 125 g ai/ha): 0%
pest or weed control at 500 g/ha ([11]; 500 g ai/ha): 20%
plant injury at 500 g/ha [12]: 0%
pest or weed control at 1000 g/ha [13]: 0%
pest or weed control at 125 g/ha [14, 22]: 0%
pest or weed control at 500 g/ha [14, 22]: 0%
pest or weed control at 500 g/ha ([14]; pre-emergence, visual rating 0-100, 0 no effect, 100 complete control, read-out: Plant response rating, Foxtail, Giant): 0%
pest or weed control at 125 g/ha ([14]; pre-emergence, preemergence, 0 to 100 scale, 0 is no effect, 100 is complete control, read-out: Plant response rating, Foxtail, Giant): 0%
pest or weed control at 1000 g/ha [15]: 0%
